Assay results taken from patent publication US20130172246A1, “INSULIN GLARGINE VERSUS METFORMIN FOR THE FIRST-LINE TREATMENT OF EARLY TYPE-2 DIABETES” (priority 2011, published 2013).
Read-outs that look alike come from different tables or passages of the source.

How the values were obtained:
type 2 diabetes patients [1] = conditions: cited from earlier work
type 2 diabetes patients [2] = test: Laboratory analyses in the clinical trial: HbA1c, plasma glucose, lipids, hsCRP; assay type: in vivo, human; conditions: for HbA1c level at end of study: after 36 weeks of treatment, GLA vs. MET n.s.; for HbA1c level at start of study: baseline value of the 'x to y' pair; for Triglycerides - change / HDL - change / HbA1c - change / LDL - change / Plasma glucose - change, 2 h after test meal / Plasma glucose - change, Fasting / Total chol. - change / hsCRP - change / Triglycerides - visit 8 / HDL - visit 8 / HbA1c - visit 8 / LDL - visit 8 / Plasma glucose - visit 8, 2 h after test meal / Plasma glucose - visit 8, Fasting / Total chol. - visit 8 / hsCRP - 8th visit: per protocol, mean (SD); for Triglycerides - change / HDL - change / HbA1c - change / LDL - change / Plasma glucose - change, 2 h after test meal / Plasma glucose - change, Fasting / Total chol. - change / hsCRP - change: change visit 1 to visit 8; for HDL - change / HbA1c - change / LDL - change / Plasma glucose - change, 2 h after test meal / Plasma glucose - change, Fasting / Total chol. - change / hsCRP - change / HDL - visit 8 / HbA1c - visit 8 / LDL - visit 8 / Plasma glucose - visit 8, 2 h after test meal / Plasma glucose - visit 8, Fasting / Total chol. - visit 8 / hsCRP - 8th visit: unit as in Table 4; for Triglycerides - visit 8 / HDL - visit 8 / HbA1c - visit 8 / LDL - visit 8 / Plasma glucose - visit 8, 2 h after test meal / Plasma glucose - visit 8, Fasting / Total chol. - visit 8 / hsCRP - 8th visit: week 36; for reduction in the FPG level (Δ): start to end of study (36 weeks), GLA vs. MET p<0.001
Protocol: Test meal: On the morning of the 2nd day of the CGM, there is a standardized test meal in the trial center. This test meal (TM) consists of 95 g of whole-wheat bread, 20 g of margarine, 25 g of fruit preserves, 25 g of cheese, 200 ml of orange juice, 200 ml of milk mix with banana, strawberry or cocoa with a total of 560 Kcal. Blood is taken from the patient prior to the TM (after night-time fasting period of at least 8 hours). […] From the 1st bite, the time is measured, and after 2 h have elapsed, a 2nd blood collection is performed. During the TM and during the two hours thereafter, the patient should move as little as possible so as not to falsify the monitoring.
Fasting blood is collected between 7 and 9 o'clock in the morning when the patient turns up at the center.
Laboratory analyses: The blood samples for the clinical laboratory tests are analyzed in the central laboratory and the local laboratories according to standardized conditions. The central laboratory and the local laboratories provide on request corresponding documentation (e.g., normal value tables, round-robin test certificates in accordance with RiLiBÄK (Guidelines of the German Medical Association)) for the trial master file. The central laboratory is responsible for the collection, transport and analysis of the blood samples and instructs the trial center on sample management.
The patients were treated with either metformin (MET, 1000 mg b.i.d. (n=3)) or insulin glargine (GLA) q.d. just before bedtime (n=3). […] At the start and end of the study, the HbA1c level and the plasma glucose, proinsulin and C-peptide concentrations were determined. […] All the patients received a standardized test meal on the second day of the continuous glucose monitoring for comparison of the interindividual postprandial (pp) glucose excursions.

[3] = Body weight, BMI, abdominal and hip measurement in the clinical trial
Protocol: (§1) • Checking the inclusion/exclusion criteria • Physical examination • Measuring body weight, waist/hip measurement, blood pressure, pulse • Recording the change in concomitant medication and concomitant conditions • Recording AEs and SAEs • Applying the CGMS for up to 72 h, briefing and training the patient • Randomization: • Group A: Titrating insulin glargine to target level of fasting plasma glucose (5.6 mmol/l (100 mg/dl)) • Briefing and training the patients in insulin use (Depending on the organization, training measures can be implemented during the overall visit 1 a-c.) • Group B: 500 mg of metformin tid • Pregnancy test, if applicable. • Laser Doppler measurement; only at center 01 and 02
(§2) • Recording the change in concomitant medication • Recording AEs and SAEs • Physical examination • Measuring body weight, waist/hip measurement, blood pressure, pulse • Applying the CGMS for up to 72 h, briefing and training the patient • Drug accountability/compliance (registering the used-up medication) • Laser Doppler measurement, only at center 01 and 02

[4] = human, in vivo
Protocol: as §1, §2

type 2 diabetes patients [5] = conditions: background statement; cited from earlier work
type 2 diabetes patients [6] = test: Hypoglycemic events and low interstitial glucose periods during CGM; assay type: in vivo, human; conditions: early treatment with GLA vs. MET
Protocol: Below is a list of the various target parameters: • Protection of the β-cells by early insulin therapy • C-Peptide (fasting and 2 h pp after TM) • Proinsulin (fasting and 2 h pp after TM) • Glycemic variability: • Glycemic load • Standard deviation (SD), • MAGE • HbA1c • Anti-inflammatory action of insulin: • Biomarkers of subclinical inflammation (fasting and 2 h pp) • hsCRP, • PAI-1, • Leukocyte count • Back-up samples for determining • MMP9 • ADMA • Adiponectin • Effect on endothelial function • Endothelial function at ball of thumb using laser Doppler (O2C) • Effect on renal function • Microalbuminuria (albumin/creatinine ratio) • Serum creatinine • Risk of hypoglycemia • Hypoglycemic intervals (time<3 mmol glucose) during CGM over 48 hours (day 2+3 after TM) • Free fatty acids […]

type 2 diabetes patients [7] = conditions: ORIGIN-CGMS substudy, cited from earlier work
type 2 diabetes patients [8] = test: Pilot study with insulin glargine with a CGMS; assay type: in vivo, human; conditions: compared to metformin
[9] = per protocol, change visit 1 to visit 8, mean (SD), unit as in Table 4

Compound | HbA1c level at end of study (type 2 diabetes patients [2]) | HbA1c level at start of study (type 2 diabetes patients [2]) | Triglycerides - change (type 2 diabetes patients [2]) | HDL - change (type 2 diabetes patients [2]) | HbA1c - change (type 2 diabetes patients [2]) | LDL - change (type 2 diabetes patients [2]) | Plasma glucose - change, 2 h after test meal (type 2 diabetes patients [2]) | Plasma glucose - change, Fasting (type 2 diabetes patients [2]) | Total chol. - change (type 2 diabetes patients [2]) | hsCRP - change (type 2 diabetes patients [2]) | Triglycerides - visit 8 (type 2 diabetes patients [2]) | HDL - visit 8 (type 2 diabetes patients [2]) | HbA1c - visit 8 (type 2 diabetes patients [2]) | LDL - visit 8 (type 2 diabetes patients [2]) | Plasma glucose - visit 8, 2 h after test meal (type 2 diabetes patients [2]) | Plasma glucose - visit 8, Fasting (type 2 diabetes patients [2]) | Total chol. - visit 8 (type 2 diabetes patients [2]) | hsCRP - 8th visit (type 2 diabetes patients [2]) | reduction in the FPG level (Δ) (type 2 diabetes patients [2]) | also measured
CN(C)C(=N)N=C(N)N [Metformin] | 6.3% | 6.9% | −0.2 (1.1) mmol/l | 0.1 (0.2) mmol/l | −0.6 (0.4) % | −0.03 (0.6) mmol/l | −1.6 (2.5) mmol/l | −1.4 (1.5) mmol/l | −0.02 (0.7) mmol/l | −0.2 (2.2) mg/l | 1.9 (0.8) mmol/l | 1.3 (0.4) mmol/l | 6.3 (0.3) % | 3.1 (0.9) mmol/l | 8.4 (2.1) mmol/l | 7.2 (1.0) mmol/l | 5.3 (1.0) mmol/l | 3.1 (5.2) mg/l | 1.4 ± 1.5 mmol/L | patients additionally receiving sulfonylureas or other combinations with oral antidiabetics (type 2 diabetes patients [1]; after one to two years, UK-PDS and DIG study): over 50%; patients with stomach complaints, disturbances in appetite and, very rarely, allergies (type 2 diabetes patients [1]; background statement): approximately 10%; cases in which not tolerated (type 2 diabetes patients [1]; reference [17]): approximately 15%; Abdomen - visit 8 ([3]; abdominal circumference, per protocol, week 36, mean (SD), unit as in Table 4): 100.5 (13.7) cm; Hip - 8th visit ([3]; hip measurement, per protocol, week 36, mean (SD), unit as in Table 4): 108.0 (11.6) cm; weight loss ([3]; over the study, vs. GLA p<0.001): 3.0 ± 4.3 kg; Abdomen - change [3, 9]: −2.0 (4.1) cm; BMI - change [3, 9]: 1.0 (1.4) kg/m^2; Hip - change [3, 9]: −1.6 (4.1) cm; BMI - visit 8 ([3]; per protocol, week 36, mean (SD), unit as in Table 4): 29.3 (5.3) kg/m^2
Insulin glargine | 6.4% | 7.2% | −0.2 (1.8) mmol/l | 0.1 (0.2) mmol/l | −0.8 (0.7) % | −0.1 (0.7) mmol/l | −2.8 (3.2) mmol/l | −3.1 (2.5) mmol/l | −0.04 (0.8) mmol/l | 0.1 (3.0) mg/l | 2.2 (2.0) mmol/l | 1.3 (0.3) mmol/l | 6.4 (0.4) % | 3.1 (0.8) mmol/l | 8.3 (2.5) mmol/l | 6.1 (1.1) mmol/l | 5.2 (1.0) mmol/l | 3.1 (2.9) mg/l | 3.1 ± 2.5 mmol/L | Abdomen - change [4]: 1.1 (3.7) cm; Abdomen - visit 8 [4]: 104.3 (10.7) cm; BMI - change [4]: −0.5 (1.3) kg/m^2; BMI - visit 8 [4]: 29.9 (4.1) kg/m^2; Hip - 8th visit [4]: 108.6 (9.4) cm; Hip - change [4]: 1.6 (4.1) cm; weight gained [4]: 1.5 ± 3.8 kg; serious adverse reactions (type 2 diabetes patients [5]): without serious adverse reactions such as severe hypoglycemias; stable HbA1c level achieved (type 2 diabetes patients [5]): around 6%; number of hypoglycemic events (type 2 diabetes patients [6]): no rise in the number of hypoglycemic events; difference in the AUC TM for BG vs. standard treatment (predominantly metformin therapy) (type 2 diabetes patients [7]): 15%; difference in the AUC TM for BG vs. standard treatment (predominantly metformin therapy) (type 2 diabetes patients [7]; standard deviation 179): 127 mmol*120 min; control of postprandial hyperglycemia (type 2 diabetes patients [8]): improved control of postprandial hyperglycemia compared to metformin; control of the fasting glucose level and of the overall glycemic situation (type 2 diabetes patients [2]; early treatment, compared to standard treatment with MET): more effective control
